Structures are written as SMILES. Values joined by “and” are separate entries in the source; they are usually repeats but may differ in a detail not shown here. Identical values can stand only once.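 The compound was tested at five concentrations on cells cultured in 96-well plates, with a 48-hour exposure period. GI50 = concentration required for 50% inhibition of growth. TGI: total growth inhibition.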

The values below come from PubChem BioAssay (NCI).

Test systems include ACHN renal; 786-0 renal; SF-539 CNS; NCI/ADR-RES ovarian; UO-31 renal; CAKI-1 renal; MOLT-4 leukemia; M14 melanoma; OVCAR-3 ovarian; SF-295 CNS.
Holding throughout (test): NCI tumour cell line growth inhibition, 48 h

On to `COc1ccccc1/C=C\C(=O)c1ccccc1`, for which the GI50 with ACHN renal is 5.4 µM; in the test with 786-0 renal it was 15 µM; in the test on SF-539 CNS, 13.8 µM; in the test with NCI/ADR-RES ovarian, 4.38 µM; in the test with UO-31 renal, 4.58 µM; in the test on CAKI-1 renal, 3.68 µM. Also, the GI50 in the test with MOLT-4 leukemia was 2.9 µM; in the test with M14 melanoma, 12.5 µM; with OVCAR-3 ovarian, 7.43 µM; in the test with SF-295 CNS, 3.27 µM. Moreover, the TGI in the test on ACHN renal is 17.5 µM; in the test on 786-0 renal, 28.4 µM; in the test with SF-539 CNS, 26.7 µM; in the test on NCI/ADR-RES ovarian, 24.3 µM; with UO-31 renal it was 17.3 µM; in the test with CAKI-1 renal it was 12.2 µM. For the same molecule, the TGI came out at 10.2 µM with MOLT-4 leukemia, 25.6 µM in the test with M14 melanoma, 19.3 µM in the test with OVCAR-3 ovarian and 14 µM with SF-295 CNS.

In the case of `Fc1c[c-]c(-c2ccccn2)c(F)c1.[CH3-].[Pt+2].c1ccc(P(C[PH+](c2ccccc2)c2ccccc2)c2ccccc2)cc1`, the GI50 with ACHN renal is 0.792 µM; in the test with 786-0 renal, 0.75 µM; in the test on SF-539 CNS, 0.838 µM; with NCI/ADR-RES ovarian, 2.53 µM; in the test with UO-31 renal, 0.731 µM; with CAKI-1 renal it was 0.869 µM. The GI50 was 0.825 µM in the test on MOLT-4 leukemia, 0.71 µM in the test with M14 melanoma, 0.411 µM with OVCAR-3 ovarian and 0.708 µM in the test on SF-295 CNS. In addition, the TGI in the test with ACHN renal amounted to 1.49 µM; in the test on 786-0 renal, 1.65 µM; in the test on SF-539 CNS it was 1.62 µM; in the test on NCI/ADR-RES ovarian it was 11.9 µM; with UO-31 renal it was 1.41 µM; in the test on CAKI-1 renal, 1.96 µM. Further, the TGI with MOLT-4 leukemia was 5.81 µM; in the test on M14 melanoma it was 2.31 µM; in the test with OVCAR-3 ovarian it was 1.2 µM; with SF-295 CNS, 1.82 µM.

With `COc1ccc2cc(-c3c(-c4ccncc4)nc(-c4ccc(S(C)=O)cc4C)n3C)ccc2c1` (stereo unspecified), the GI50 with ACHN renal is 13.2 µM; in the test with 786-0 renal it was 24.3 µM; with SF-539 CNS, greater than 25 µM; with NCI/ADR-RES ovarian it was 24.3 µM; in the test with UO-31 renal it was 6.37 µM; with CAKI-1 renal, 6.98 µM. Moreover, the GI50 in the test on MOLT-4 leukemia was 17.4 µM; in the test with M14 melanoma it was greater than 21.6 µM; with OVCAR-3 ovarian it was 14.3 µM; in the test on SF-295 CNS, 16.6 µM. Further, the TGI in the test on ACHN renal, with 786-0 renal, in the test on SF-539 CNS, with NCI/ADR-RES ovarian, in the test on UO-31 renal and in the test with CAKI-1 renal was greater than 25 µM each time. Further, the TGI in the test on MOLT-4 leukemia, in the test with M14 melanoma, in the test with OVCAR-3 ovarian and in the test on SF-295 CNS was greater than 25 µM each time.

Turning to `COc1ccc(C(=O)C[C@]2(O)C(=O)Nc3c(Cl)ccc(Cl)c32)cc1`, the GI50 in the test on ACHN renal is 0.774 µM; in the test with 786-0 renal, 2.61 µM; with SF-539 CNS it was 0.478 µM; with NCI/ADR-RES ovarian, 0.379 µM; in the test with UO-31 renal, 1.47 µM; in the test with CAKI-1 renal, 0.492 µM. For the same molecule, the GI50 with MOLT-4 leukemia is 0.533 µM; in the test with M14 melanoma it was 0.321 µM; with OVCAR-3 ovarian it was 0.348 µM; in the test on SF-295 CNS, 0.516 µM. Also, the TGI was greater than 100 µM with ACHN renal; greater than 100 µM with 786-0 renal; 3.99 µM with SF-539 CNS; greater than 100 µM with UO-31 renal; greater than 100 µM in the test on CAKI-1 renal; greater than 100 µM in the test on MOLT-4 leukemia. The TGI in the test on M14 melanoma was greater than 100 µM; in the test on OVCAR-3 ovarian, 7.19 µM; with SF-295 CNS it was greater than 100 µM.

As for `Cc1cc(NC(=O)NC(=O)c2ccccc2N(C)C)ccc1Oc1ncc(Br)cn1`, the GI50 was 0.404 µM in the test with ACHN renal; 0.322 µM in the test on 786-0 renal; 0.208 µM with SF-539 CNS; 0.584 µM in the test with UO-31 renal; 0.588 µM and 0.402 µM with CAKI-1 renal; 0.533 µM in the test on MOLT-4 leukemia. The GI50 in the test with M14 melanoma was 0.428 µM. The TGI with ACHN renal is greater than 68.1 µM; in the test with 786-0 renal, 44.6 µM; in the test with SF-539 CNS, 0.548 µM and 1.03 µM; in the test on NCI/ADR-RES ovarian, 24.6 µM; in the test with UO-31 renal, greater than 63.1 µM; with CAKI-1 renal it was greater than 100 µM. The TGI in the test on MOLT-4 leukemia is 39.7 µM; with M14 melanoma it was greater than 63.1 µM; in the test with OVCAR-3 ovarian, 11.1 µM; in the test on SF-295 CNS, 21.8 µM.

Turning to `Cc1cc(=O)oc2cc(OCCn3c(C)nn(-c4ccc(Cl)cc4)c3=O)ccc12`, the GI50 in the test on ACHN renal was 5.59 µM; with 786-0 renal, 5.7 µM; with SF-539 CNS, 4.06 µM; in the test with NCI/ADR-RES ovarian, 1.64 µM; with UO-31 renal, 12.7 µM; in the test with CAKI-1 renal, greater than 100 µM. The GI50 with MOLT-4 leukemia was 4.71 µM; in the test with M14 melanoma, 2.36 µM; in the test with OVCAR-3 ovarian it was 3.25 µM; in the test on SF-295 CNS, 4.73 µM. Also, the TGI was greater than 100 µM in the test on ACHN renal; greater than 100 µM in the test on 786-0 renal; 47.3 µM in the test on SF-539 CNS; greater than 100 µM with NCI/ADR-RES ovarian; greater than 100 µM with UO-31 renal; greater than 100 µM in the test on CAKI-1 renal. The TGI in the test with MOLT-4 leukemia was greater than 100 µM; with M14 melanoma, greater than 100 µM; in the test with OVCAR-3 ovarian it was 15.2 µM; with SF-295 CNS it was greater than 100 µM.

As for `COc1ccc(-c2nc3c(c(=O)n2C(C)=O)C(c2ccc(Cl)cc2)c2sc4c(Cl)cccc4c2O3)cc1` (stereo unspecified), the GI50 in the test on ACHN renal is 0.897 µM; with 786-0 renal, 0.43 µM; with SF-539 CNS it was 0.259 µM; with NCI/ADR-RES ovarian it was 0.187 µM; with UO-31 renal, 0.329 µM; with CAKI-1 renal, 0.49 µM. Also, the GI50 in the test on MOLT-4 leukemia is 0.386 µM; with M14 melanoma it was 0.239 µM; in the test on OVCAR-3 ovarian, 0.383 µM; with SF-295 CNS, 0.256 µM. Besides, the TGI worked out at 4.51 µM in the test with ACHN renal; 1.63 µM in the test on 786-0 renal; 0.84 µM with SF-539 CNS; 0.919 µM in the test with NCI/ADR-RES ovarian; 2.39 µM with UO-31 renal; 4.16 µM with CAKI-1 renal. For the same molecule, the TGI in the test on MOLT-4 leukemia stood at 2.64 µM; in the test with M14 melanoma, 0.973 µM; in the test on OVCAR-3 ovarian, 1.85 µM; in the test with SF-295 CNS, 1.27 µM.

In the case of `O=C(Nc1cc(S(=O)(=O)c2ccc(Cl)cc2)ccc1Cl)c1cc(I)cc(I)c1O`, the GI50 in the test on ACHN renal is 17.1 µM; with 786-0 renal, 15.6 µM; in the test with SF-539 CNS, 18.6 µM; in the test on NCI/ADR-RES ovarian it was 18.7 µM; with UO-31 renal it was 20.9 µM; in the test with CAKI-1 renal, 20.3 µM. The GI50 in the test with MOLT-4 leukemia is 19.3 µM; in the test with M14 melanoma, 17.6 µM; with OVCAR-3 ovarian, 17 µM; in the test with SF-295 CNS, 15.1 µM. Besides, the TGI in the test on ACHN renal turned out to be 36 µM; in the test with 786-0 renal it was 30 µM; in the test on SF-539 CNS it was 38.2 µM; in the test with NCI/ADR-RES ovarian, 44.6 µM; with UO-31 renal, 38.8 µM; in the test on CAKI-1 renal, 38.2 µM. Also, the TGI in the test on MOLT-4 leukemia stood at 41 µM; in the test with M14 melanoma, 35 µM; in the test on OVCAR-3 ovarian, 34.2 µM; with SF-295 CNS, 32 µM.

Take `O=C(Nc1ccccc1O)c1ccc(CNC(=O)c2ccsc2Nc2ccnc(C(F)(F)F)c2)cc1`: the GI50 is 2.6 µM with ACHN renal; 2.29 µM with 786-0 renal; 1.95 µM with SF-539 CNS; 2.23 µM in the test on NCI/ADR-RES ovarian; 1.32 µM in the test with UO-31 renal; 2.62 µM with CAKI-1 renal. Further, the GI50 is 0.956 µM with MOLT-4 leukemia, 2.61 µM with M14 melanoma, 1.85 µM with OVCAR-3 ovarian and 1.86 µM in the test with SF-295 CNS. Further, the TGI was 10.3 µM with ACHN renal; 5.34 µM in the test with 786-0 renal; 18.1 µM in the test with SF-539 CNS; 8.52 µM in the test with NCI/ADR-RES ovarian; 4.34 µM in the test on UO-31 renal; 9.96 µM in the test on CAKI-1 renal. Moreover, the TGI with MOLT-4 leukemia stood at 9.48 µM; with M14 melanoma, 7.03 µM; in the test with OVCAR-3 ovarian, 4.8 µM; in the test on SF-295 CNS, 4.51 µM.

On to `CCc1cccc(CC)c1/C=C/c1cncc(C(=O)NC)c1`, for which the GI50 is 22.1 µM with ACHN renal; 14.2 µM in the test with 786-0 renal; 8.58 µM with SF-539 CNS; 6.71 µM in the test on NCI/ADR-RES ovarian; 8.8 µM in the test with UO-31 renal; 9.62 µM in the test with CAKI-1 renal. The GI50 in the test on MOLT-4 leukemia is 12.4 µM; with M14 melanoma, 6.57 µM; in the test with OVCAR-3 ovarian, 8.14 µM; in the test with SF-295 CNS, 11.6 µM. Also, the TGI in the test with ACHN renal, in the test with 786-0 renal, in the test with SF-539 CNS, in the test on NCI/ADR-RES ovarian, with UO-31 renal and in the test on CAKI-1 renal was greater than 25 µM in each case. Moreover, the TGI was greater than 25 µM in the test with MOLT-4 leukemia, 18.8 µM in the test on M14 melanoma, greater than 20.2 µM with OVCAR-3 ovarian and greater than 25 µM with SF-295 CNS.

`NC(=O)c1cc(I)ccc1NC(=O)COc1ccccc1`: the GI50 in the test with ACHN renal is 1.5 µM; in the test with 786-0 renal, 0.957 µM; in the test with SF-539 CNS it was 0.29 µM; with NCI/ADR-RES ovarian it was 0.329 µM; with UO-31 renal, 4.27 µM; with CAKI-1 renal it was 0.547 µM. The GI50 in the test with MOLT-4 leukemia is 1.05 µM; with M14 melanoma, 0.403 µM; in the test with OVCAR-3 ovarian, 0.336 µM; in the test with SF-295 CNS, 0.256 µM. Moreover, the TGI with ACHN renal was greater than 100 µM; in the test with 786-0 renal it was 18.8 µM; with SF-539 CNS, 1.58 µM; in the test with NCI/ADR-RES ovarian, 5.43 µM; with UO-31 renal, greater than 100 µM; in the test on CAKI-1 renal, greater than 100 µM. The TGI was greater than 78.4 µM in the test with MOLT-4 leukemia, greater than 100 µM in the test with M14 melanoma, 1.35 µM with OVCAR-3 ovarian and 3.39 µM in the test on SF-295 CNS.
